Reference: paper PMC9506414, “Novel 2,6,9-Trisubstituted Purines as Potent CDK Inhibitors Alleviating Trastuzumab-Resistance of HER2-Positive Breast Cancers” (Pharmaceuticals, 2022)

Experiments:
Test in all cases: Kinome-wide inhibition profiling
Assay type in all cases: biochemical
CDK2/cyclinA = biological target: T1, CDK2/cyclinA (Homo sapiens, UniProt P24941)
T1 construct: purchased Reaction Biology Corp
Protocol: (§1) In vitro CDK12/cyclinK assays for all compounds and in vitro kinome-wide inhibition profiling of 30d at 10 μM were performed by a CRO company (Reaction Biology Corp., San Diego, CA, USA).

IRAK2 = biological target: T2, IRAK2 (Homo sapiens, UniProt O43187)
T2 construct: purchased Reaction Biology Corp
T2 sequence (O43187 whole entry): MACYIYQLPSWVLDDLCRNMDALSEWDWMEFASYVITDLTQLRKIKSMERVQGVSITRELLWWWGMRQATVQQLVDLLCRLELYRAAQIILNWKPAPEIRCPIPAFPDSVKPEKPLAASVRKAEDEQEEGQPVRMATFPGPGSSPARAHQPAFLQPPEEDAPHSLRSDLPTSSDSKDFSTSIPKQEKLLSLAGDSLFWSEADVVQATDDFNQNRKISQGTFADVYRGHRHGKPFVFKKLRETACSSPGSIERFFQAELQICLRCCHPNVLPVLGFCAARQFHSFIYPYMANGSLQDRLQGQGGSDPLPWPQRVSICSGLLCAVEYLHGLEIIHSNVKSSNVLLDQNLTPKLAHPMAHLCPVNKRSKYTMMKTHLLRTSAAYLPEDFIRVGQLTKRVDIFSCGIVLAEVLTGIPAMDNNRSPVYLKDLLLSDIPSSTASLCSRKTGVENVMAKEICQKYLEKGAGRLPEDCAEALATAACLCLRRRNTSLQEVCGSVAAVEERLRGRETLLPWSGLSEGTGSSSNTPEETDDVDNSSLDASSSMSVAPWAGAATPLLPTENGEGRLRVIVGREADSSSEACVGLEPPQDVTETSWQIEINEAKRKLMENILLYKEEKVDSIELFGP
Protocol: as §1

ARAF = biological target: T3, ARAF (Homo sapiens, UniProt P10398)
T3 construct: purchased Reaction Biology Corp
Protocol: as §1

MARK4 = biological target: T4, MARK4 (Homo sapiens, UniProt Q96L34)
T4 construct: purchased Reaction Biology Corp
Protocol: as §1

SBK1 = biological target: T5, SBK1 (Homo sapiens, UniProt Q52WX2)
T5 construct: purchased Reaction Biology Corp
T5 sequence (Q52WX2 whole entry): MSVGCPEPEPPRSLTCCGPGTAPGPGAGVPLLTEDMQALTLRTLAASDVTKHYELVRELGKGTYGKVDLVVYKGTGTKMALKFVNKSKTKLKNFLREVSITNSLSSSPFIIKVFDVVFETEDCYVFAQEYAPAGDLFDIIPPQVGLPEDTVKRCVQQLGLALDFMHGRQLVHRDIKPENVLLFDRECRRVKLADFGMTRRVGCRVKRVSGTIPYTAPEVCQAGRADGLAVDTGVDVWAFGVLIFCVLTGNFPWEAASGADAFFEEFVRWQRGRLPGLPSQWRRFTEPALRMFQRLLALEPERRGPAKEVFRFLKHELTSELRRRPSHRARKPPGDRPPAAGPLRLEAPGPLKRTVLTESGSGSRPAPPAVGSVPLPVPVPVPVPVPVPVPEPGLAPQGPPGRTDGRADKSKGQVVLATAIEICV
Protocol: as §1

PRKCG = biological target: T6, PRKCG (Homo sapiens, UniProt P05129)
T6 construct: purchased Reaction Biology Corp
Protocol: as §1

MAPKAPK3 = biological target: T7, MAPKAPK3 (Homo sapiens, UniProt Q16644)
T7 construct: purchased Reaction Biology Corp
Protocol: as §1

GRK7 = biological target: T8, GRK7 (Homo sapiens, UniProt Q8WTQ7)
T8 construct: purchased Reaction Biology Corp
Protocol: as §1

MASTL = biological target: T9, MASTL (Homo sapiens, UniProt Q96GX5)
T9 construct: purchased Reaction Biology Corp
T9 sequence (Q96GX5 whole entry): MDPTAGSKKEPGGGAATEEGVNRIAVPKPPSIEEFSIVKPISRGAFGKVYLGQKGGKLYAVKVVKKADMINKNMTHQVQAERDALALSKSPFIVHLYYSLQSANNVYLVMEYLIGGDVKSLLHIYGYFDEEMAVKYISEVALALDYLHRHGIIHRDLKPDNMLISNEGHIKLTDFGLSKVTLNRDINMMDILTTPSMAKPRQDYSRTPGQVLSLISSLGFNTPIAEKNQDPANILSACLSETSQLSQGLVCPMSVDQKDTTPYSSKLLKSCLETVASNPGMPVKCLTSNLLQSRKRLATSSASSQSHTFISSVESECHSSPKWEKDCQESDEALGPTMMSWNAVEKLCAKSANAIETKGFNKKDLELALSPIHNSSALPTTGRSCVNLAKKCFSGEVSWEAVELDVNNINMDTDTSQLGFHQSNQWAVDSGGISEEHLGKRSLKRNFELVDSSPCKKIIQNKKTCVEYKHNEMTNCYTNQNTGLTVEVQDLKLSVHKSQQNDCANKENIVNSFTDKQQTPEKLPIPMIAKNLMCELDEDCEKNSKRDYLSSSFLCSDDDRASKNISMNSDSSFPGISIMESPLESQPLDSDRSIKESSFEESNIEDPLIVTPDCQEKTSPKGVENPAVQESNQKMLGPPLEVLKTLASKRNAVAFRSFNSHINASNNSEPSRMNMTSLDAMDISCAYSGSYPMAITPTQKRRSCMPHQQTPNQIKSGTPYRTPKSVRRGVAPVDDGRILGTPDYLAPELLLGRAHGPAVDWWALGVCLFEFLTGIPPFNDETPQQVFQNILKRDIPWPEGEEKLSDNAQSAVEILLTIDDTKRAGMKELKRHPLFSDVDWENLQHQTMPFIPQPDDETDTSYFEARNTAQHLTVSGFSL
Protocol: as §1

ROCK2 = biological target: T10, ROCK2 (Homo sapiens, UniProt O75116)
T10 construct: purchased Reaction Biology Corp
T10 sequence (O75116 whole entry): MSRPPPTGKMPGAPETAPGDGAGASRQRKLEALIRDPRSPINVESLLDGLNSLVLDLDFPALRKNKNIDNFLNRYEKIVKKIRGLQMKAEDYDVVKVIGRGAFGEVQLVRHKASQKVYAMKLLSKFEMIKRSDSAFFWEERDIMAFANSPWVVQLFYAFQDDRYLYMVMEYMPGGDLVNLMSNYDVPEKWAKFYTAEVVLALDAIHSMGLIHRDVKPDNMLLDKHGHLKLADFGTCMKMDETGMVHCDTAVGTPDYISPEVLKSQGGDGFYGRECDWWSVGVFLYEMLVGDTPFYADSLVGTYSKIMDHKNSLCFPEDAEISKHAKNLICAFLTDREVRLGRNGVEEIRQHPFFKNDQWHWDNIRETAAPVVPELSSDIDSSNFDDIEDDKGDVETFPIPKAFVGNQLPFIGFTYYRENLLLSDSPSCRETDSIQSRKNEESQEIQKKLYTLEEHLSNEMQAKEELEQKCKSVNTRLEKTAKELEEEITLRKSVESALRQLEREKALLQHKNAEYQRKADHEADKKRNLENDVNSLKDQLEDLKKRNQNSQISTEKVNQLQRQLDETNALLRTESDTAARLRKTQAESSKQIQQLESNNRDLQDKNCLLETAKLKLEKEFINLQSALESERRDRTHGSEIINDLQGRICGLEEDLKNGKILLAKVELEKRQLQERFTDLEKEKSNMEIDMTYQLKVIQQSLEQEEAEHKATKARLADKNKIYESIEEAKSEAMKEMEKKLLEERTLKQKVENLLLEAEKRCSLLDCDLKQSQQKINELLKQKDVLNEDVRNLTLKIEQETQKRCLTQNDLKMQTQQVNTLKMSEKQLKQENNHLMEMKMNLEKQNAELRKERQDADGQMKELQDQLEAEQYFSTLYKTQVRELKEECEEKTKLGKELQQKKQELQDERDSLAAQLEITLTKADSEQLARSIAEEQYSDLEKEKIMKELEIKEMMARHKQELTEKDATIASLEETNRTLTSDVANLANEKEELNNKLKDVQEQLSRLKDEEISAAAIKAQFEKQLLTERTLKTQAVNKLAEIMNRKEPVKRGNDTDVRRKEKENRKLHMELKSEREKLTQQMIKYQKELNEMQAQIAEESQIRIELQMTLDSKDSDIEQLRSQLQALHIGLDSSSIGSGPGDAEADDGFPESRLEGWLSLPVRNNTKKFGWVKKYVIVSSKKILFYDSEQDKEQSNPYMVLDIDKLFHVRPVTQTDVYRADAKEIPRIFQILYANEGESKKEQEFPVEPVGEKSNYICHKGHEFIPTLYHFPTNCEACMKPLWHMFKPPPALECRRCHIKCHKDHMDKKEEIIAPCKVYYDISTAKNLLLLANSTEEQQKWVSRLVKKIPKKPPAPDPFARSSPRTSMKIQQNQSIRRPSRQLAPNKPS
Protocol: as §1

MEK2 = biological target: T11, MEK2 (Homo sapiens, UniProt P36507)
T11 construct: purchased Reaction Biology Corp
Protocol: as §1

WNK2 = biological target: T12, WNK2 (Homo sapiens, UniProt Q9Y3S1)
T12 construct: purchased Reaction Biology Corp
Protocol: as §1

MAPKAPK5 = biological target: T13, MAPKAPK5 (Homo sapiens, UniProt Q8IW41)
T13 construct: purchased Reaction Biology Corp
Protocol: as §1

IKK-alpha = biological target: T14, IKK-alpha (Homo sapiens, UniProt O15111)
T14 construct: purchased Reaction Biology Corp
Protocol: as §1

PKCb2 = biological target: T15, PKCb2 (Homo sapiens, UniProt P05771)
T15 construct: purchased Reaction Biology Corp
Protocol: as §1

BMPR1B = biological target: T16, BMPR1B (Homo sapiens, UniProt O00238)
T16 construct: purchased Reaction Biology Corp
Protocol: as §1

GRK3 = biological target: T17, GRK3 (Homo sapiens, UniProt P35626)
T17 construct: purchased Reaction Biology Corp
Protocol: as §1

TIE2 = biological target: T18, TIE2 (Homo sapiens, UniProt Q02763)
T18 construct: purchased Reaction Biology Corp
T18 sequence (Q02763 23-1124): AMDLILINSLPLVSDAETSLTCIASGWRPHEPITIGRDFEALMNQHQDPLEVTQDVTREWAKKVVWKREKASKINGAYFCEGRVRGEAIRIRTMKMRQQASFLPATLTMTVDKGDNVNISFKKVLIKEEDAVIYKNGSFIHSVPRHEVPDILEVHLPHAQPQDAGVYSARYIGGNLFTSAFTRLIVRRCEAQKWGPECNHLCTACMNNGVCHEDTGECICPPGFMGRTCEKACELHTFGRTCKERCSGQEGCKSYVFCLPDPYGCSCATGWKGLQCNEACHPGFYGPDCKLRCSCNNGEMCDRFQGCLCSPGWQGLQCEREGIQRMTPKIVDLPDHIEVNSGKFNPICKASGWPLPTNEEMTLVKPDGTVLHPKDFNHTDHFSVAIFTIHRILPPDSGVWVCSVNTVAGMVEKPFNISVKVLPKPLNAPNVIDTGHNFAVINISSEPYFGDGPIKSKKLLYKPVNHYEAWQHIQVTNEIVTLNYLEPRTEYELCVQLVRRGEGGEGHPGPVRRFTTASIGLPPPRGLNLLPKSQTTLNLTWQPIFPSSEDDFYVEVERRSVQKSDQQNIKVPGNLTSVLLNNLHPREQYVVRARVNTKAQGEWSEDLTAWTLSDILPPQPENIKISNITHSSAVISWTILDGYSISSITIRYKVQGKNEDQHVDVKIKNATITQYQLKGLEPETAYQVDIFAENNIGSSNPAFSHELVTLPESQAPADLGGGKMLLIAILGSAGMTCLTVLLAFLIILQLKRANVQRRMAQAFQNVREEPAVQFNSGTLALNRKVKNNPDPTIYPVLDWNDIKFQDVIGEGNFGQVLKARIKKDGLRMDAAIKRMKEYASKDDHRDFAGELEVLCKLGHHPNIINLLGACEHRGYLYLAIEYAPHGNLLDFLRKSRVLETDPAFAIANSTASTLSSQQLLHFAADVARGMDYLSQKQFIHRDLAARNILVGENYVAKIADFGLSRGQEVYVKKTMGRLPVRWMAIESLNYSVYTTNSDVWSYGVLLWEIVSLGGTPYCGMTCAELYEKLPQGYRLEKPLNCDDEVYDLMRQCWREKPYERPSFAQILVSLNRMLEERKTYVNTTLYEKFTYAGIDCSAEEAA
Protocol: as §1

CSNK1G3 = biological target: T19, CSNK1G3 (Homo sapiens, UniProt Q9Y6M4)
T19 construct: purchased Reaction Biology Corp
Protocol: as §1

DYRK2 = biological target: T20, DYRK2 (Homo sapiens, UniProt Q92630)
T20 construct: purchased Reaction Biology Corp
T20 sequence (Q92630 whole entry): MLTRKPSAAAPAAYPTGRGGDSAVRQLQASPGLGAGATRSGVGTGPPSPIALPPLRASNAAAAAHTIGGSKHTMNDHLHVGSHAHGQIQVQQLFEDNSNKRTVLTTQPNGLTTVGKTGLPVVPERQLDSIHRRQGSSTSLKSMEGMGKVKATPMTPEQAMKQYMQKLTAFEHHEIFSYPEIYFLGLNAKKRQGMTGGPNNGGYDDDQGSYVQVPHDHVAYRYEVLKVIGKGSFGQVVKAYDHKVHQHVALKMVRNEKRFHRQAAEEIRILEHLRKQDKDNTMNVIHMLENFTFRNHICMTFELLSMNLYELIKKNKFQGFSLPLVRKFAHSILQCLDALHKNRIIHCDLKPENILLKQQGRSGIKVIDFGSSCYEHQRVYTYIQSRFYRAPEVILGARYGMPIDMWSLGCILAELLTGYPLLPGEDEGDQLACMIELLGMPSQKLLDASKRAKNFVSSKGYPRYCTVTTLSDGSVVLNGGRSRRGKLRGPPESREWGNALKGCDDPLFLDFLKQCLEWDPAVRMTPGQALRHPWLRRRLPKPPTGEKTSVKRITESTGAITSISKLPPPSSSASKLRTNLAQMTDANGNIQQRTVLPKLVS
Protocol: as §1

TEC = biological target: T21, TEC (Homo sapiens, UniProt P42680)
T21 construct: purchased Reaction Biology Corp
Protocol: as §1

VEGFR2 = biological target: T22, VEGFR2 (Homo sapiens, UniProt P35968)
T22 construct: purchased Reaction Biology Corp
Protocol: as §1

YES = biological target: T23, YES (Homo sapiens, UniProt P07947)
T23 construct: purchased Reaction Biology Corp
Protocol: as §1

HIPK3 = biological target: T24, HIPK3 (Homo sapiens, UniProt Q9H422)
T24 construct: purchased Reaction Biology Corp
Protocol: as §1

WNK1 = biological target: T25, WNK1 (Homo sapiens, UniProt Q9H4A3)
T25 construct: purchased Reaction Biology Corp
Protocol: as §1

IKK-epsilon = biological target: T26, IKK-epsilon (Homo sapiens, UniProt Q14164)
T26 construct: purchased Reaction Biology Corp
Protocol: as §1

HCK = biological target: T27, HCK (Homo sapiens, UniProt P08631)
T27 construct: purchased Reaction Biology Corp
Protocol: as §1

PLK4 = biological target: T28, PLK4 (Homo sapiens, UniProt O00444)
T28 construct: purchased Reaction Biology Corp
Protocol: as §1

ACK1 = biological target: T29, ACK1 (Homo sapiens, UniProt Q07912)
T29 construct: purchased Reaction Biology Corp
Protocol: as §1

EPHA1 = biological target: T30, EPHA1 (Homo sapiens, UniProt P21709)
T30 construct: purchased Reaction Biology Corp
Protocol: as §1

BRSK2 = biological target: T31, BRSK2 (Homo sapiens, UniProt Q8IWQ3)
T31 construct: purchased Reaction Biology Corp
Protocol: as §1

AXL = biological target: T32, AXL (Homo sapiens, UniProt P30530)
T32 construct: purchased Reaction Biology Corp
Protocol: as §1

INSR = biological target: T33, INSR (Homo sapiens, UniProt P06213)
T33 construct: purchased Reaction Biology Corp
Protocol: as §1

ULK3 = biological target: T34, ULK3 (Homo sapiens, UniProt Q6PHR2)
T34 construct: purchased Reaction Biology Corp
Protocol: as §1

P38-beta = biological target: T35, P38-beta (Homo sapiens, UniProt Q15759)
T35 construct: purchased Reaction Biology Corp
Protocol: as §1

TLK2 = biological target: T36, TLK2 (Homo sapiens, UniProt Q86UE8)
T36 construct: purchased Reaction Biology Corp
Protocol: as §1

S6K1 = biological target: T37, S6K1 (Homo sapiens, UniProt P23443)
T37 construct: purchased Reaction Biology Corp
Protocol: as §1

MST4 = biological target: T38, MST4 (Homo sapiens, UniProt Q9P289)
T38 construct: purchased Reaction Biology Corp
Protocol: as §1

LIMK2 = biological target: T39, LIMK2 (Homo sapiens, UniProt P53671)
T39 construct: purchased Reaction Biology Corp
Protocol: as §1

Src = biological target: T40, Src (Homo sapiens, UniProt P12931)
T40 construct: purchased Reaction Biology Corp
Protocol: as §1

AKT2 = biological target: T41, AKT2 (Homo sapiens, UniProt P31751)
T41 construct: purchased Reaction Biology Corp
Protocol: as §1

MYO3b = biological target: T42, MYO3b (Homo sapiens, UniProt Q8WXR4)
T42 construct: purchased Reaction Biology Corp
Protocol: as §1

PAK1 = biological target: T43, PAK1 (Homo sapiens, UniProt Q13153)
T43 construct: purchased Reaction Biology Corp
Protocol: as §1

Kit = biological target: T44, Kit (Homo sapiens, UniProt P10721)
T44 construct: purchased Reaction Biology Corp
Protocol: as §1

Q: What does the source list for `CCn1cnc2c(NCc3ccc(-c4ccccn4)nc3)nc(-c3ccc(N)nc3)nc21` [Compound 30d, N-([2,2′-Bipyridin]-5-ylmethyl)-2-(6-aminopyridin-3-yl)-9-ethyl-9H-purin-6-amine]?
A: inhibition at 10 µM (CDK2/cyclinA): > 95%; remaining activity at 10 µM (CDK2/cyclinA): 1.2%; remaining activity at 10 µM (IRAK2): 97.5%; remaining activity at 10 µM (ARAF): 79.5%; remaining activity at 10 µM (MARK4): 66.9%; remaining activity at 10 µM (SBK1): 94.5%; remaining activity at 10 µM (PRKCG): 49.6%; remaining activity at 10 µM (MAPKAPK3): 100%; remaining activity at 10 µM (GRK7): 49.7%; remaining activity at 10 µM (MASTL): 103%; remaining activity at 10 µM (ROCK2): 92.3%; remaining activity at 10 µM (MEK2): 176%; remaining activity at 10 µM (WNK2): 108%; remaining activity at 10 µM (MAPKAPK5): 103%; remaining activity at 10 µM (IKK-alpha): 71.5%; remaining activity at 10 µM (PKCb2): 39.6%; remaining activity at 10 µM (BMPR1B): 115%; remaining activity at 10 µM (GRK3): 102%; remaining activity at 10 µM (TIE2): 34.8%; remaining activity at 10 µM (CSNK1G3): 24.4%; remaining activity at 10 µM (DYRK2): 22.3%; remaining activity at 10 µM (TEC): 71.5%; remaining activity at 10 µM (VEGFR2): 88.6%; remaining activity at 10 µM (YES): 20.6%; remaining activity at 10 µM (HIPK3): 94.1%; remaining activity at 10 µM (WNK1): 82.5%; remaining activity at 10 µM (IKK-epsilon): 80.1%; remaining activity at 10 µM (HCK): 46.5%; remaining activity at 10 µM (PLK4): 83.4%; remaining activity at 10 µM (ACK1): 13.7%; remaining activity at 10 µM (EPHA1): 13.2%; remaining activity at 10 µM (BRSK2): 97.5%; remaining activity at 10 µM (AXL): 44.2%; remaining activity at 10 µM (INSR): 65.1%; remaining activity at 10 µM (ULK3): 91.8%; remaining activity at 10 µM (P38-beta): 64.7%; remaining activity at 10 µM (TLK2): 72.2%; remaining activity at 10 µM (S6K1): 92.1%; remaining activity at 10 µM (MST4): 45.8%; remaining activity at 10 µM (LIMK2): 76.5%; remaining activity at 10 µM (Src): 60.1%; remaining activity at 10 µM (AKT2): 100%; remaining activity at 10 µM (MYO3b): 68.1%; remaining activity at 10 µM (PAK1): 24.5%; remaining activity at 10 µM (Kit): 14.2%
